Our source for the melting point values is patent US6989393B2, “Ccr5 modulators benzimidazoles or benzotriazoles” (AstraZeneca AB, priority 2000, dated 2006).

As usually defined, the melting point is the temperature, or range, at which the solid turns liquid.

In turn, `N#CC(CCN1CCC(n2cnc3ccccc32)CC1)(c1ccccc1)c1ccccc1` [Example 19, 1-[1-(3-Cyano-3,3-diphenylpropyl)-piperidin-4-yl]benzimidazole] gave a melting point of 172 to 173 °C.

Take `c1ccc(C(CCN2CCC(n3cnc4ccccc43)CC2)c2ccccc2)cc1` [Example 2, 1-[1-(3,3-Diphenylpropyl)-piperidin-4-yl]benzimidazole]: the melting point lay in the range of 156 to 157 °C.
